# Measurements taken from US12162935B2, “Regimens, compositions and methods with capsaicin and TNF-alpha inhibitor” (priority 2018, dated 2024).
# Tests used:
# Wistar rats = assay: ABR threshold shifts, cisplatin-induced hearing loss; assay type: in vivo, rat
# Protocol: Adult male Wistar rats (200-350 g) (from Envigo) were used for this study. Rats were housed in a temperature controlled room with a twelve hour light/dark cycle. They had free access to commercial food and water provided by the SIU Laboratory Animal Care facility.
# Prior to experiments, rats were anesthetized with ketamine HCl/xylazine mixture (24.6/3 mg/kg) and then placed in a sound-attenuation chamber (Industrial Acoustic Company, Inc.). Body temperature of the rats was maintained at 37° C. with an animal blanket system. Pretreatment auditory brainstem responses (ABRs) was performed using an IHS-High-frequency System (Intelligent Hearing Systems, Miami, FL). The rats were exposed to acoustic stimuli via HIS transducers that were directly placed at the entrance of the ear canal. ABR thresholds were obtained for 5 ms duration tone bursts at 8, 16 and 32 kHz at a rate of 50/s. Thresholds were determined by visually produced lowest intensity evoked potentials (EP) that progressed in 10 dB steps. Evoked potentials (Eps) were amplified to 200,000×, and were band pass filtered (100-3000 Hz) and averaged over 1024 sweeps [Mukherjea et al., 2010].
# At the end of auditory testing, the anesthetized animals were decapitated and the cochlea harvested. The SIU Laboratory Animal Care and Use Committee approved all animal procedures.
# Male Wistar rats were anesthetized using ketamine/xylazine cocktail. The tympanic membrane was punctured as described in [Mukherjea et al., 2010].
# outer hair cells (OHCs) = assay: Outer hair cell damage by SEM and whole mount hair cell count; assay type: in vivo, rat
# Description: Immediately after completion of post-treatment ABRs, rats were euthanized and their cochleae were harvested and the specimens processed as described previously by [Kamimura et al.]. Sputter-coated cochlea were viewed and photographed with a Hitachi S-500 scanning electron microscope (Hitachi Ltd.). The resulting scanning electron micrographs were examined to determine qualitative morphological characteristics in various regions including the basal, middle, and apical turns of the rat cochlea.
# Two representative areas of the basal turn, middle turn, and apex and hook portion were photographed. In each area, outer hair cells (OHCs) were counted in an area that was 10 pillar cell heads in length. The results are presented as the percentage hair cell damage per cochlear turn. At least three cochleae from different animals per treatment group were used.
# To study the organization of the outer hair cells and inner hair cells, the cochlear whole mount technique was used. The cochleae was fixed in fresh 4% paraformaldehyde overnight, and then decalcified in […] EDTA for 2 weeks, (pH 7.3) while stirring at room temperature for 2 weeks. After decalcification, the cochleae was microdissected into basal, middle, and apical turns for whole-mount preparation.
# For further processing, segments were washed with 1×PBS twice for 5 mins. For blocking, the segments were incubated in 10% blocking serum (horse serum) for 3 hrs at room temperature. The segments were incubated with primary antibody in 0.2% Triton prepared in PBS and refrigerated overnight. The following day, the segments were washed in PBS (three washes) for 5 mins each wash. The segments were washed in secondary antibody for 2 hrs at room temperature in the dark. The antibodies were then washed with PBS (three washes). Glass coverslips were then mounted on the segments with ProLong Diamond Antifade Mountant (Thermo Fisher Scientific) and incubated them at room temperature overnight and then stored them in 4 degrees. Images were procured using a Leica confocal microscope (Buffalo Grove, IL).
# For hair cell count in whole mount preparations, two to three random areas from the basal turn from each treatment group separately were selected. Hair cells were counted in […] segments of the cochlea respectively. Counts were averaged across treatment group. This was further normalized as % of PBS (control) by taking the values of control as 100%.
compound,measurement,setting,value
"COc1cc(CNC(=O)CCCC/C=C/C(C)C)ccc1O [capsaicin, 8-methyl-N-vanillyl-trans-6-nonenamide]",ABR threshold shifts produced by cisplatin,"Wistar rats; TT-capsaicin 50 μl of 0.1 μM 24 h prior to cisplatin 11 mg/kg ip, 72 h, 8, 16 and 32 kHz",significantly reduced ABR threshold shifts
same,ABR thresholds,"Wistar rats; TT-capsaicin alone, 72 h, vs TT vehicle",did not significantly alter ABR thresholds
same,ABR threshold,"Wistar rats; capsaicin alone by trans-tympanic injection or oral gavage, 72 h",did not significantly alter ABR threshold
same,protection against cisplatin-induced ABR threshold shifts,Wistar rats; oral capsaicin 5 mg/kg 24 h prior to cisplatin,did not protect
same,cisplatin ABR threshold shift,Wistar rats; oral capsaicin 20 mg/kg 24 h prior to cisplatin (FIG. 11.B),abrogated
same,protection against cisplatin-induced ABR threshold shifts,Wistar rats; oral capsaicin 10 or 20 mg/kg 24 h prior to cisplatin,Significant protection
same,stereociliary damage induced by cisplatin,"outer hair cells (OHCs); SEM, oral capsaicin",significantly reduced
same,loss of outer hair cells,"outer hair cells (OHCs); SEM, trans-tympanic capsaicin pretreatment, cisplatin",no significant loss of outer hair cells
same,hair cell damage,"outer hair cells (OHCs); whole mount, oral capsaicin alone",minimal hair cell damage
same,outer hair cell loss compared to control,"outer hair cells (OHCs); whole mount, oral capsaicin prior to cisplatin",no significant outer hair cell loss
